Test results published in US11085033B2, “Glycosylated oxalate decarboxylase and preparation and application thereof” (WUHAN KANGFUDE BIOTECHNOLOGY CO., LTD., priority 2016, dated 2021).

What was measured:
[1] = test system: Bacillus subtilis oxalate decarboxylase (OxDc); settings: even under a condition of an ideal pH value; read-out: Kin value; cited from earlier work
[2] = biological target: Agrocybe aegerita glycosylated oxalate decarboxylase (OxDc), naturally expressed by acid induction; experiment: Determination of Km of Agrocybe aegerita oxalate decarboxylase by double reciprocal method; oxalate degradation by HPLC, 37° C.; assay type: biochemical
Method: In this invention, high performance liquid chromatography (HPLC) is used to determine the activity of oxalate decarboxylase. The operation process is as follows: preheating 1.0 mL 5 mM (mmol/L) oxalate solution (25 mM citrate buffer solution contained, pH 3.0) at 37° C. for 10 min and adding 0.01-0.1 ml (added volume is adjusted according to enzyme concentration) solution containing oxalate decarboxylase or fungus powder suspension into the oxalate solution for reaction; adding 50 μL 2.5M (molar concentration) H2SO4 to inactivate the enzyme after reacting for 30 minutes; quickly centrifuging the reaction solution and collecting supernatant to determine the concentration of residual oxalate by using HPLC. One enzyme activity unit (U) is defined as the required enzyme amount to degrade 1 micromole oxalate per minute on this condition.
The enzyme activity of the purified glycosylated oxalate decarboxylase obtained in Embodiment 2 was determined at pH 3.0, and the result is shown in Table 1. […] Different enzyme batches show the Kin value between 0.03 and 1.0 mM at different pH (pH 2.5-6.0), and the average Kin value at optimal pH range of pH 2.5-3.0 is 0.06 mM, as is shown in Table 2.

SMILES: O=C(O)C(=O)O [oxalate]
- Km [1]: 4000 µM
- Kin value (average at optimal pH) ([2]; optimal pH range pH 2.5-3.0): 0.06 mM
- Km ([2]; pH 3.0-3.5): 120 ± 40 µM
- Km ([2]; pH 3.5-4.0): 200 ± 30 µM
- Km ([2]; pH 4.0-4.5): 250 ± 80 µM
- Km ([2]; pH 4.5-5.0): 360 ± 130 µM
- Km ([2]; pH 5.0-6.0): 700 ± 300 µM
